We go through 19 molecules from patent US5658925A, “Aminobenzoic acid derivatives” (Eisai Co., Ltd., priority 1993, dated 1997).

Test [1] concerns cisplatin-induced vomiting. As to the kind of experiment: Activity against cisplatin-induced vomiting of beagle. Conditions: through the vein of forefoot, one hour after 3 mg/kg cisplatin, 5-hour period. In kind it is in vivo. As to the method: [Experimental Example 2] Activity against cisplatin-induced vomiting of beagle
Beagles weighing 7 to 12 kg were used. 3 mg/kg of cisplatin (a product of Sigma) (1 ml/kg of physiological saline) was administered to each beagle through the vein of one of its forefeet. One hour after the administration, physiological saline (0.2 ml/kg) was administered to a control group of beagles and a solution of a test compound in physiological saline was administered to a test group of beagles, each through the vein of the other forefoot. The frequency of vomiting observed over a 5-hour period from the administration of cisplatin was recorded and the inhibitory ratio of the test compound was calculated according to the following formula.

Test [2] relates to gastric emptying function. Nature of the test: Activity for increasing gastric emptying function. The format is in vivo, rat (Fischer male). Conditions: oral, one hour before test food, *: minimum effective dose. As for the experimental part:
[Experimental Example 3] Activity for increasing gastric emptying function
This experiment was made according to the method of Decktor et al. [see Eur. J. Pharmacol., 147, 313-316 (1988)]. Fischer male rats (weight: 160 to 180 g) were fasted for 18 hours before 3 ml of a test food comprising methylcellulose, beef bouillon, casein, sugar and corn starch was orally administered to each rat. One hour after the administration, the stomach was extirpated from each rat. The gastric emptying ratio was calculated from the weight of the test food remaining in the stomach. The percentage increment of the gastric emptying function was determined by comparing the gastric emptying ratio of a medicated rat with that of a control rat. Each test compound (5 ml/kg) was orally administered one hour before the administration of the test food. BRL 24924 was used as a control in this experiment.

In test [3] the target is T1, serotonin 4 (Rattus norvegicus, UniProt Q62758).
T1 construct: The esophagus of a rat was extirpated and freed from the outer tunica propria to obtain the muscular layer of mucosa; from tissue; host or cells: muscular layer of mucosa of rat esophagus
As to the kind of experiment: Effect of relaxing the contraction of muscular layer of esophageal mucosa of rat by stimulation with carbachol (activity of serotonin 4 as agonist). The format is cell-based. As to the method: This experiment was made according to the method of Baxter et al. [see Naunyn-Schmiedeberg's Arch. […] The esophagus of a rat was extirpated and freed from the outer tunica propria to obtain the muscular layer of mucosa. […] A load of 0.5 g was applied to each sample and the reaction was recorded isometrically. 1 μM of carbachol was added to each sample to cause contraction, followed by the cumulative addition thereto of a solution of a test compound. The effect of the test compound was determined as the ratio (%) of relaxation based on the maximum contraction caused by carbachol.

Test [4] has as its target T2, serotonin 3 (Cavia porcellus, UniProt O70212).
T2 construct: from tissue; host or cells: nonterminal ileum of Hartley male guinea pig
T2 sequence (O70212 20-490): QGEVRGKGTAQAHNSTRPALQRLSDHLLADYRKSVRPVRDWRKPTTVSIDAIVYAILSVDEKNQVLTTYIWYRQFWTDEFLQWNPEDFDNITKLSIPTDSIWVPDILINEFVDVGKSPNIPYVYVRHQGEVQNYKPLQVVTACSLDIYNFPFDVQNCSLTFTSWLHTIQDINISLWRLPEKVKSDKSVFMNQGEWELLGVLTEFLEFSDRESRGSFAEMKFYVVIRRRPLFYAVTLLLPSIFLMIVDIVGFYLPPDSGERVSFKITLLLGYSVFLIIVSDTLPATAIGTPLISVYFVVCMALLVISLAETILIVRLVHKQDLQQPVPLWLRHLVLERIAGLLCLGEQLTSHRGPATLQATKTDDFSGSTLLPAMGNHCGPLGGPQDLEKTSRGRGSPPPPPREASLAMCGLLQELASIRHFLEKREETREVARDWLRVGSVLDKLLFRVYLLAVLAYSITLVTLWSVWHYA
Nature of the test: Antagonism against 2-methyl-serotonin-induced contraction of ileum (serotonin 3 antagonism). In kind it is cell-based, guinea pig (Hartley male). Conditions: vs 2-methylserotonin, 30 minutes with test compound, 37° C. As to the method: [Experimental Example 1] Antagonism against 2-methyl-serotonin-induced contraction of ileum (serotonin 3 antagonism)
This experiment was made according to the method of Sanger et al. [see Eur. J. Pharmacol., 159, 113-124 (1989)]. The nonterminal ileum of a Hartley male guinea pig was suspended in the Krebs solution (37° C.) by applying a load of 0.5 g, and a gaseous mixture comprising 95% of oxygen and 5% of carbon dioxide was passed through the solution. The contraction of the ileum was isometrically determined. After allowing the ileum to stand for one or more hours for stabilization, a solution of a test compound was added to the solution, and after 30 minutes, 2-methylserotonin was noncumulatively added. The pA2 value was calculated from the rightward shift of the dose-response curve of the 2-methylserotonin-induced contraction caused by the test compound according to the method of Rossum et al. [see Arch. Int. Pharmacodyn. 143, 299(1963)]. BRL 24924 (Renzapride) was used as a control in this experiment.
The structural formula of BRL 24924 is as follows: [drawing 19]

The mark [5] stands for this setting: 50% relaxation of maximum contraction caused by 1 μM carbachol, cumulative addition, 37° C., read-out: Effect of relaxing the muscular layer of esophageal mucosa of rat EC50.
Where [6] appears, read: guinea pig nonterminal ileum, read-out: pA2 (converted).
The mark [7] stands for this setting: pA2, guinea pig nonterminal ileum.

The structures appear in SMILES notation. Where a name gives a salt, the structure may show the parent alone. Read-outs that look alike come from different tables or passages of the source.

T1 sequence (Q62758 whole entry): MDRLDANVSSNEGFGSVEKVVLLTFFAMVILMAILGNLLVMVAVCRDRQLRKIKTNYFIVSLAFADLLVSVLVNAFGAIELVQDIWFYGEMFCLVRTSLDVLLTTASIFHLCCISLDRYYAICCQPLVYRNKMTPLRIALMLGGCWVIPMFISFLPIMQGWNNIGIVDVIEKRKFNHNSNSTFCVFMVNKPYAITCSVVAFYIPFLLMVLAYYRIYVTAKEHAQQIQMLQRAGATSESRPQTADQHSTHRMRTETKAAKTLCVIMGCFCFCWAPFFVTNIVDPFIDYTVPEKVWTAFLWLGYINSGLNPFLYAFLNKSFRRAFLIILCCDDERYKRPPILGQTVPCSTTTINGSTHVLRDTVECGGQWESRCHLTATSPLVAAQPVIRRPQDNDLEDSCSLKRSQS

The term EC50 denotes the concentration giving half of the maximal effect. With `CC#C[C@H](C)Oc1cc(N)c(Cl)cc1C(=O)NC1CCN2CCOC1C2` (single isomer, unassigned) [20 fraction 2], the “Inhibitory ratio against cisplatin-induced vomiting (%)” value (from here on “Inhibitory ratio … (%)”) in test [1] (0.03 mg/kg) is reported as 14%; in test [1] (0.1 mg/kg), 24%. Also, the “Percentage increment of gastric emptying function (%)” value (shortened to “Percentage increment … (%)”) is given as 14.0% in test [2] (0.03 mg/kg), 23.3% in test [2] (0.1 mg/kg) and 21.8% in test [2] (0.3 mg/kg). In test [3] (setting [5]), the EC50 is 0.033 µM. Also, the Kb in test [4] (setting [6]) is 0.0126 µM.
Consider `CC#C[C@H](C)Oc1cc(N)c(Cl)cc1C(=O)NC1C2CCC1CN(C)C2` (stereo partly drawn) [Example 35, (S)-N-(3-Methyl-3-azabicyclo[3.2.1]oct-8α-yl) -4-amino-5-chloro-2-(1-methyl-2-butynyl)oxybenzamide hydrochloride], for which the EC50 in test [3] (setting [5]) worked out at 2 µM.
Turning to `CC#C[C@H](C)Oc1cc(N)c(Cl)cc1C(=O)NC1C2CC3CC1CN(C3)C2` (stereo partly drawn) [Example 55, (S)-N-(1-Azatricyclo[3.3.1.1^3,7]dec-10-yl)-4-amino-5-chloro-(1-methyl-2-butynyl)oxybenzamide hydrochloride], the half-maximal effective concentration (EC50) in test [3] (setting [5]) is 0.64 µM.
For the molecule `CC#C[C@H](C)Oc1cc(N)c(Cl)cc1C(=O)NC1CCN2CCOC1C2` (single isomer, unassigned) [20 fraction 1], the “Inhibitory ratio … (%)” value in test [1] (0.1 mg/kg) was 22%. The “Percentage increment … (%)” value in test [2] (0.01 mg/kg) is 3.9%; in test [2] (0.03 mg/kg), 8.9%; in test [2] (0.1 mg/kg), 22.9%; in test [2] (0.3 mg/kg), 11.5%. Besides, in test [3] (setting [5]), the EC50 is 0.06 µM. In test [4] (setting [6]), the Kb was 0.0631 µM.
For `CC#C[C@H](C)Oc1cc(N)c(Cl)cc1C(=O)NC1CCC2CCC1N2C` (single isomer, unassigned) [53 fraction 2], the “Percentage increment … (%)” value in test [2] (0.1 mg/kg) is given as 14.4%; in test [2] (0.3 mg/kg), 16.1%. The EC50 in test [3] (setting [5]) stood at 0.31 µM.
In the case of `CC#C[C@H](C)Oc1cc(N)c(Cl)cc1C(=O)NC1CC2CC(OC)C(C1)N2C` (single isomer, unassigned) [28 fraction 2], the EC50 in test [3] (setting [5]) is > 10 µM.
`CC#C[C@H](C)Oc1cc(N)c(Cl)cc1C(=O)NC1CCC2CCC1N2C` (single isomer, unassigned) [53 fraction 2-2]: the “Percentage increment … (%)” value in test [2] (0.03 mg/kg) worked out at 6.6%; in test [2] (0.1 mg/kg), 21.3%; in test [2] (0.3 mg/kg), 28.8%. Moreover, in test [3] (setting [5]), the EC50 was determined as 0.18 µM. Moreover, the Kb in test [4] (setting [7]) is 0.0126 µM.
Take `CC#C[C@H](C)Oc1cc(N)c(Cl)cc1C(=O)NC1CC2CC(OCC)CC(C1)N2C` (stereo partly drawn) [Example 50, (S)-N-(3-Ethoxy-9-methyl-9-azabicyclo[3.3.1]-1non-9α- or 9β-yl)-4-amino-5-chloro-2-(1-methyl-2-butynyl)oxybenzamide hydrochloride]: the concentration giving a half-maximal response (EC50) in test [3] (setting [5]) is > 10 µM.
`CC#C[C@H](C)Oc1cc(N)c(Cl)cc1C(=O)NC1CCN2CCOC1C2` (stereo partly drawn) [Example 15, N-(4-Oxa-1-azabicyclo[3.3.1]non-6α-yl)-4-amino-5-chloro-2-((S)-1-methyl-2-butynyl/oxybenzamide hydrochloride]: the figures for the “Percentage increment … (%)” value in test [2] (0.1 mg/kg) and in test [2] (0.3 mg/kg) were 24.6% and 30.6%, respectively. The EC50 in test [3] (setting [5]) stood at 0.035 µM.
Regarding `CC#C[C@H](C)Oc1cc(N)c(Cl)cc1C(=O)NC1CC2COCC(C1)N2C` (some centres unmarked) [Example 2], the entries for the “Inhibitory ratio … (%)” value in test [1] (0.03 mg/kg) and in test [1] (0.1 mg/kg) were 14% and 53%, respectively. Further, the “Percentage increment … (%)” value is 20.5% in test [2] (0.01 mg/kg), 19.7% in test [2] (0.03 mg/kg), 19.8% in test [2] (0.1 mg/kg) and 30.6% in test [2] (0.3 mg/kg). Moreover, the response in test [3] was half-maximal at 0.082 µM (EC50).
Take `CC#CC(CCOCC)Oc1cc(N)c(Cl)cc1C(=O)NC1CC2CCC(C1)N2C` (stereo not drawn) [Example 42, N-(8Methyl-8-azabicylo[3.2.1]oct-3α-yl)-4-amino-5-chloro-2-(1-ethoxyethyl-2-butynyl]oxybenzamide hydrochloride]: the EC50 in test [3] (setting [5]) turned out to be 6.2 µM.
On the same count and under the same terms, the value for `CC#C[C@H](C)Oc1cc(N)c(Cl)cc1C(=O)NC1CC2CCCC(C1)N2C` (some centres unmarked) [Example 4, hydrochloride] was 1.3 µM.
Take `CC#C[C@H](C)Oc1cc(N)c(Cl)cc1C(=O)NC1CCC2CCC1N2C` (single isomer, unassigned) [53 fraction 2-1]: the “Percentage increment … (%)” value is 14.4% in test [2] (0.01 mg/kg), 22.2% in test [2] (0.03 mg/kg), 26.7% in test [2] (0.1 mg/kg) and 29.0% in test [2] (0.3 mg/kg). Besides, in test [3] (setting [5]), the 50% effective concentration (EC50) stood at 0.3 µM. Also, in test [4] (setting [7]), the Kb was 0.00251 µM.
`CC#C[C@H](C)Oc1cc(N)c(Cl)cc1C(=O)NC1CC2CC(OC)C(C1)N2C` (single isomer, unassigned) [28 fraction 1]: in test [3] (setting [5]), the EC50 is > 10 µM.
On to `CC#C[C@H](C)Oc1cc(N)c(Cl)cc1C(=O)NC1CC2CN(C)CC(C1)N2C` (stereo partly drawn) [Example 19, (S)-N-(3,9-Dimethyl-3,9-diazabicyclo[3.3.1]non-7α-yl)-4-amino-5-chloro-2-(1-methyl-2-butynyl/oxybenzamidedihydrochloride], for which the EC50 in test [3] (setting [5]) was > 10 µM.
Regarding `CC#C[C@H](C)Oc1cc(N)c(Cl)cc1C(=O)NC1CC2CCC(C1)N2` (some centres unmarked) [Example 29], the EC50 in test [3] (setting [5]) is > 10 µM.
Regarding `CC#C[C@H](C)Oc1cc(N)c(Cl)cc1C(=O)NC1CCN2CCCC1C2` (single isomer, unassigned) [31 fraction 1], the “Percentage increment … (%)” value in test [2] (0.03 mg/kg) was 0.8%; in test [2] (0.1 mg/kg), 0.8%; in test [2] (0.3 mg/kg), 14.1%. Also, the EC50 in test [3] (setting [5]) amounted to 0.044 µM. In addition, the Kb in test [4] (setting [6]) is 0.0631 µM.
For the molecule `CC#C[C@H](C)Oc1cc(N)c(Cl)cc1C(=O)NC1C2CN(C)CC1CN(C)C2` (stereo partly drawn) [Example 44, (S)-N-(3,7-Dimethyl-3,7-diazabicyclo[3.3.1]non-9-yl)-4-amino-5-chloro-2-(1-methyl-2-butynyl)oxybenzamide hydrochloride], the half-maximal effective concentration (EC50) in test [3] turned out to be 0.11 µM.
`CC#C[C@H](C)Oc1cc(N)c(Cl)cc1C(=O)NC1CCN2CCCC1C2` (stereo partly drawn) [Example 6, N-(1-Azabicyclo[3.3.1]non-4α-yl)-4-amino-5-chloro-2-((S-1-methyl-2-butynyl/oxybenzamide hydrochloride]: the “Inhibitory ratio … (%)” value in test [1] (0.1 mg/kg) stood at 77%. The EC50 in test [3] (setting [5]) is 0.11 µM. Moreover, the Kb in test [4] (setting [6]) is 0.02 µM.
